Reference: US10696615B2, “Prenylated hydroxystilbenes” (The University of Sydney, priority 2011, dated 2020)

Key:
[1] = Acute toxicity study (maximum tolerated dose); assay type: in vivo; settings: for Death days / Survivor/Total day 15: IP, single dose
Description: A single mouse is given a single IP injection of 400 mg/kg; a second mouse receives a dose of 200 mg/kg IP and a third mouse receives a single dose of 100 mg/kg IP. The mice are observed for a period of 2 weeks. They are sacrificed if they lose more than 20% of their body weight or if there are other signs of significant toxicity. If all 3 mice must be sacrificed, then the next 3 dose levels (50, 25, 12.5 mg/kg) are tested in a similar way. This process is repeated until a tolerated dose is found. This dose is then designated the maximum tolerated dose (MTD) and is used to calculate the amount of material given to experimental mice during anti-tumor testing. The mice are allowed ad libitum feed and water. Drug was dissolved in 100% DMSO at concentration of 200 mg/mL.

CDK4/CyclinD3 = CDK4/CyclinD3 (Homo sapiens, UniProt P11802); experiment: Kinase activity assay; assay type: biochemical; settings: listed = inhibited more than 60%
Description: (§1) • Kinase-Glo(Plus)/ADP-Gloassay buffer 25 mMHEPES, 10 mMMgCl2, 0.01% Triton X-100, 100 μg/mLBSA, 2.5 mMDTT, pH7.4. • Caliper assay buffer 100 mMHEPES, 10 mMMgCl2, 100 μl/L Brij35 (30%), 1 mMDTT, pH7.4. Assay Substrates • MBP protein, UnactiveMEK1, Rbprotein were purchased from SignalChem. Poly(glu:tyr)(4:1) was purchased from Sigma. PIP2 was purchased from Cayman. Peptide substrates were synthesized in HD Biosciences, China. ATP was purchased from Sigma. KinaseGloPlus reagent, KinaseGloreagent and ADP Gloreagent were purchased from Promega Assay Procedure—Caliper Format
(§2) Mix Kinases, substrate, ATP and compound in 96-well assay plate, total volume is 50 μL. Incubate assay plate at 30° C. for 1 hour. Stop reaction by adding 20 μL of 35 mM EDTA and transfer 26 μL stopped reaction to 384-well assay plate. Read the assay plate on the plate reader.
(§3) Mix Kinases, substrate, ATP and compound in 384-well assay plate, total volume is 10 μl. Incubate assay plate at 30° C. for 1 hour. Add 10 μl/well of ADP GloReagent to the assay plate, incubate at 27° C. for 40 min.
(§4) Add 20 μl/well Detection Reagent to the assay plate, incubate at 27° C. for 30 min. Read the assay plate on the plate reader
(§5) Mix Kinase, substrate, ATP and compound in 384-well assay plate, total volume is 10 μl. Incubate assay plate at 30° C. for 1 hour. Add 10 μl/well KinaseGlo(Plus) reagent to the reaction mixture, and then incubate at 27° C. for 20 min. Read the assay plate on plate reader. • Hundred percent effect was performed without compound and enzyme, but containing ATP and substrate. • Zero percent effect was carried out without compound, but containing ATP, substrate and enzyme. • SB202190 is reference compounds for kinase p38β; Staurosporine(STSP) is reference compound for the remaining kinases. Results

[2] = DPPH scavenging activity assay; settings: FIG. 10, result in words
Description: The (1,1-diphenyl-2-picrylhydrazyl) DPPH assay is commonly used to test free radical scavenging ability of a compound or extracts of natural products by measurement of the reduction of DPPH* radicals at 517 nm. […] Upon reduction by an antioxidant or radical scavenger, the absorption disappears and the resulting decolorization by scavenging the radical is stoichiometric with respect to the number of electrons taken up (DPPH*+AH→DPPH:H+A*). The DPPH assay was carried out in a stepwise procedure as described below.
A methanolic solution of DPPH (0.1 mM) was stirred in a dark container at room temperature for 20 min. The solution was scanned between 400-750 nm to obtain a maximum wavelength (λmax, ˜510 nm). The concentration of the DPPH solution was adjusted with methanol to result in a maximum absorbance of approximately 1.0. Test samples at different concentrations and standard antioxidant solution (0.05 mL) were added to 0.95 mL of methanolic DPPH solution in a cuvette. Final concentrations of the test samples were 0.1, 1, 10, 50, 100 and 200 μM. The mixtures were shaken vigorously and allowed to stand in the dark for 30 min at room temperature. Absorbance of the resulting solution was measured at the maximum wavelength (˜510 nm). A decrease in absorbance indicated a free radical scavenging effect of the test samples. […]

FLT1 = FLT1 (Homo sapiens, UniProt P17948); experiment: Kinase activity assay; assay type: biochemical; settings: listed = inhibited more than 60%
Description: as §1, §2, §3, §4, §5

CDK1/CyclinB = CDK1/CyclinB (Homo sapiens, UniProt P06493); experiment: Kinase activity assay; assay type: biochemical; settings: listed = inhibited more than 60%
Description: as §1, §2, §3, §4, §5

KDR = KDR (Homo sapiens, UniProt P35968); experiment: Kinase activity assay; assay type: biochemical; settings: listed = inhibited more than 60%
Description: as §1, §2, §3, §4, §5

Chain of CDK1/CyclinB (P06493 whole entry, species assumed): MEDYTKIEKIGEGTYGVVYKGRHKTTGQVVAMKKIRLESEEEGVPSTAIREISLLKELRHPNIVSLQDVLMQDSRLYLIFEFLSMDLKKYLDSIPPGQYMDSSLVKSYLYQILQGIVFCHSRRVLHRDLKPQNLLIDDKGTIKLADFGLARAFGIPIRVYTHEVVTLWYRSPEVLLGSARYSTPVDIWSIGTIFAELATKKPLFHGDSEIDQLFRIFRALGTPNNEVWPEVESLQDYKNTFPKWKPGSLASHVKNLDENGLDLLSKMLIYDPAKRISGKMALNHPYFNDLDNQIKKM
Chain of CDK1/CyclinB (P14635 whole entry partner, species assumed): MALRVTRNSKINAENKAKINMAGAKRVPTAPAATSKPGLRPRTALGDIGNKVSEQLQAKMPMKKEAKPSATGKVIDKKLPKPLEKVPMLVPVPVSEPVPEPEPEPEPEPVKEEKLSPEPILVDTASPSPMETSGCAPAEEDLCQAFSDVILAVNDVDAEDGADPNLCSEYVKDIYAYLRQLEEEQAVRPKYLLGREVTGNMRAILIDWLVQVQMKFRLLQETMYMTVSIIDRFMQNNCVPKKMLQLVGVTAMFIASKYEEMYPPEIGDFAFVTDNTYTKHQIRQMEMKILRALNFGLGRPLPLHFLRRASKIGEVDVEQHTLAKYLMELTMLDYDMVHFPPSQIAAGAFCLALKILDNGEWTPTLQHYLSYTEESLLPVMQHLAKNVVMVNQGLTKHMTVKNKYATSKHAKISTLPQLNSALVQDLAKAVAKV
Chain of CDK4/CyclinD3 (P11802 whole entry, species assumed): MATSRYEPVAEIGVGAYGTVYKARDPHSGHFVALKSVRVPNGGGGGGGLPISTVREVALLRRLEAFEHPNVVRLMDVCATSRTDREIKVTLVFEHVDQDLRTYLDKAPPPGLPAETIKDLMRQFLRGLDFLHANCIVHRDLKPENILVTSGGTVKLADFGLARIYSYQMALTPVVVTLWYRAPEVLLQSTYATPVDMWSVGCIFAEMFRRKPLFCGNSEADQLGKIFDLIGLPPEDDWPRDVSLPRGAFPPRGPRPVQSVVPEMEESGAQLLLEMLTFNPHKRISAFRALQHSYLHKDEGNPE
Chain of CDK4/CyclinD3 (P30281 whole entry partner, species assumed): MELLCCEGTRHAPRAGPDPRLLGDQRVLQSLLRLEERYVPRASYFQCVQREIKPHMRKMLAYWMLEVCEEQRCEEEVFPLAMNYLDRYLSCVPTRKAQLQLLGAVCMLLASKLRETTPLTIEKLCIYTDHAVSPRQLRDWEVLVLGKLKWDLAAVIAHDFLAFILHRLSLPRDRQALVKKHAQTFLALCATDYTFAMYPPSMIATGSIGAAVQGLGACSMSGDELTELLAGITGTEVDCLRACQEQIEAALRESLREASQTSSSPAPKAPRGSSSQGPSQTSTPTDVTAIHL
Chain of KDR (P35968 20-1356, species assumed): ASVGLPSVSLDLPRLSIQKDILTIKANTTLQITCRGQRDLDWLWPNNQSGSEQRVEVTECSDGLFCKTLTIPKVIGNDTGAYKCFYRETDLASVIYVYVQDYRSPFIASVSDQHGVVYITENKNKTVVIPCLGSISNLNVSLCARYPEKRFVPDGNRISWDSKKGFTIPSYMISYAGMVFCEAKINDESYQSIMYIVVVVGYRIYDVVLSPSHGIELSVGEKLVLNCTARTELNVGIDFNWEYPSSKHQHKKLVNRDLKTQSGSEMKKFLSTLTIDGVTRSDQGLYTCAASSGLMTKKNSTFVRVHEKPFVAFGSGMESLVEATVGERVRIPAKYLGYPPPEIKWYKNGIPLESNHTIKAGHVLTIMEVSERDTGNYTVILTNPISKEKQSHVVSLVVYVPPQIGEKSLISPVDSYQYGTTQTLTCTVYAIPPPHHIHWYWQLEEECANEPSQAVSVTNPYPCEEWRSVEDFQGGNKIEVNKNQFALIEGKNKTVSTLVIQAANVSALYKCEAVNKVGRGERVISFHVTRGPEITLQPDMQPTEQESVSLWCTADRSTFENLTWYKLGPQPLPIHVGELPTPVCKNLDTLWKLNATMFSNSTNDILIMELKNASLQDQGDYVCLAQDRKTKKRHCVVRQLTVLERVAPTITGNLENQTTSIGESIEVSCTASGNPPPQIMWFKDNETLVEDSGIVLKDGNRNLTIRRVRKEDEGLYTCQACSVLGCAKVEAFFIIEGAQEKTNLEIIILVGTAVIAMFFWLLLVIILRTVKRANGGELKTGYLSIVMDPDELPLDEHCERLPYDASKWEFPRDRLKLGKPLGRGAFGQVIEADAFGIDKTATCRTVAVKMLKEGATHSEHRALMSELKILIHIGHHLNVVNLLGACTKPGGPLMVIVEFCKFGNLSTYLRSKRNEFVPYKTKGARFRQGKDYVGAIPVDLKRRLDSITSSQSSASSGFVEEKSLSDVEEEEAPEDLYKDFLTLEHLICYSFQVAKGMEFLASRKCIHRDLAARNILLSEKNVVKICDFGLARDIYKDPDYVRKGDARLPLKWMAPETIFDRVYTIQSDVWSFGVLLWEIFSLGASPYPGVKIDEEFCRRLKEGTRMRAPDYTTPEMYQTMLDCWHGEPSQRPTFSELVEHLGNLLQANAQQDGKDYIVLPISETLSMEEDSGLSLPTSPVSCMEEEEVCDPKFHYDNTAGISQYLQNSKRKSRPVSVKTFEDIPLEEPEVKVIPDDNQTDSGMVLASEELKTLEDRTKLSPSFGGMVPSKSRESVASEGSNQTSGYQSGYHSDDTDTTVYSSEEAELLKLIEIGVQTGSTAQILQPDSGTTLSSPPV
Chain of FLT1 (P17948 27-1338, species assumed): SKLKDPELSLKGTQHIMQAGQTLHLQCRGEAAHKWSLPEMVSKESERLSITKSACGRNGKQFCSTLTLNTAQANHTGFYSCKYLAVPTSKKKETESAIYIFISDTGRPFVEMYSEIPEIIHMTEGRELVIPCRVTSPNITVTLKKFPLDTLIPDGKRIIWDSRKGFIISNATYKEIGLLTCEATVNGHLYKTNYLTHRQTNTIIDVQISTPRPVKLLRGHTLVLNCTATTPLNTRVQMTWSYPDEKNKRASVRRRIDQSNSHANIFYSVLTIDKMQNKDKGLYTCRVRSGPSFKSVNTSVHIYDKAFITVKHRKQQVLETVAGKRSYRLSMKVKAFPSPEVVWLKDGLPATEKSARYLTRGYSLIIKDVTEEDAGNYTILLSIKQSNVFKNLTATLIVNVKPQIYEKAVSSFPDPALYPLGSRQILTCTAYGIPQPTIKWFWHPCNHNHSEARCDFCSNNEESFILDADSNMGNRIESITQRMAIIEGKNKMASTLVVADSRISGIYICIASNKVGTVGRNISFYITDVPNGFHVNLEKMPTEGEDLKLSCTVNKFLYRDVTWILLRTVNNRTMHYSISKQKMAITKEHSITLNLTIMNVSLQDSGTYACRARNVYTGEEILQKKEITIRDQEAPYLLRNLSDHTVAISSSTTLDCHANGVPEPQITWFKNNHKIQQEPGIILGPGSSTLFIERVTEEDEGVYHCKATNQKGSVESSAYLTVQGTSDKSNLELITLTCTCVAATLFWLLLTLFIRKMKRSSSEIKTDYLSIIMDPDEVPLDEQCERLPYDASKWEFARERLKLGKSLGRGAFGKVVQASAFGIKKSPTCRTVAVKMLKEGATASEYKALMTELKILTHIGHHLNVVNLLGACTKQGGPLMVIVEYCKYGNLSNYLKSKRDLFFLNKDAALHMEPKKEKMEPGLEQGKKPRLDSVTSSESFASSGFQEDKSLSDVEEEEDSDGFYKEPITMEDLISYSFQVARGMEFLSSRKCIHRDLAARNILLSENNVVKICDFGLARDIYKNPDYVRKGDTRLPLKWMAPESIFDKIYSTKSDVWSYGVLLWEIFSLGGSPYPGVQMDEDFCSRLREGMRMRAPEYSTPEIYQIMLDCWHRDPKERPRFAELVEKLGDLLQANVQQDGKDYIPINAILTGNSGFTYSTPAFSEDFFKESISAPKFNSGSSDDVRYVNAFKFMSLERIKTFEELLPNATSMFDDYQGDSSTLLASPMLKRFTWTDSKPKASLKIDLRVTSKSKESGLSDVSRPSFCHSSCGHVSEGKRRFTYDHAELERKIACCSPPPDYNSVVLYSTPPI

COc1cc(/C=C/c2cc(O)cc(OC)c2CC=C(C)C)ccc1O [USYDS1, (E)-2-(3-methyl-2-buten-1-yl)-4′,5-dihydroxy-3,3′-dimethoxystilbene]
MTD at 2 weeks ([1]; in vivo, mouse, single IP injection, observed 2 weeks): 100 mg/kg | Death days ([1]; mouse, 100 mg/kg/dose): None | Survivor/Total day 15 ([1]; mouse, 100 mg/kg/dose): 1/1 | Death days ([1]; mouse, 200 mg/kg/dose): 1 | Survivor/Total day 15 ([1]; mouse, 200 mg/kg/dose): 0/1 | Death days ([1]; mouse, 400 mg/kg/dose): 1 | Survivor/Total day 15 ([1]; mouse, 400 mg/kg/dose): 0/1 | mammalian toxicity ([1]; result in words): low mammalian toxicity | Kinases that inhibited more than 60% (CDK4/CyclinD3): CDK4/CyclinD3

CC(C)=CCc1c(O)cc(/C=C/c2ccc(O)c(O)c2)c(CC=C(C)C)c1O [USYDS7, (E)-2,4-di(3-methyl-2-buten-1-yl)-3,3′,4′,5-tetrahydroxystilbene]
effect on free radical scavenging [2]: strong effect

COc1cc(/C=C/c2cc(O)cc(O)c2CC=C(C)C)ccc1O [USYDS10, (E)-2-(3-methyl-2-buten-1-yl)-3,4′,5-trihydroxy-3′-methoxystilbene]
Kinases that inhibited more than 60% (FLT1): FLT1 | Kinases that inhibited more than 60% (CDK1/CyclinB): CDK1/CyclinB | Kinases that inhibited more than 60% (KDR): KDR
